This passage reports IC50 results from patent publication US11040981B2, “Pyrrolotriazine compounds and methods of inhibiting TAM kinases” (Syros Pharmaceuticals, Inc., priority 2017, dated 2021).

One assay deals with T1, TYRO3 (Homo sapiens, UniProt Q06418).
T1 sequence (Q06418 41-890): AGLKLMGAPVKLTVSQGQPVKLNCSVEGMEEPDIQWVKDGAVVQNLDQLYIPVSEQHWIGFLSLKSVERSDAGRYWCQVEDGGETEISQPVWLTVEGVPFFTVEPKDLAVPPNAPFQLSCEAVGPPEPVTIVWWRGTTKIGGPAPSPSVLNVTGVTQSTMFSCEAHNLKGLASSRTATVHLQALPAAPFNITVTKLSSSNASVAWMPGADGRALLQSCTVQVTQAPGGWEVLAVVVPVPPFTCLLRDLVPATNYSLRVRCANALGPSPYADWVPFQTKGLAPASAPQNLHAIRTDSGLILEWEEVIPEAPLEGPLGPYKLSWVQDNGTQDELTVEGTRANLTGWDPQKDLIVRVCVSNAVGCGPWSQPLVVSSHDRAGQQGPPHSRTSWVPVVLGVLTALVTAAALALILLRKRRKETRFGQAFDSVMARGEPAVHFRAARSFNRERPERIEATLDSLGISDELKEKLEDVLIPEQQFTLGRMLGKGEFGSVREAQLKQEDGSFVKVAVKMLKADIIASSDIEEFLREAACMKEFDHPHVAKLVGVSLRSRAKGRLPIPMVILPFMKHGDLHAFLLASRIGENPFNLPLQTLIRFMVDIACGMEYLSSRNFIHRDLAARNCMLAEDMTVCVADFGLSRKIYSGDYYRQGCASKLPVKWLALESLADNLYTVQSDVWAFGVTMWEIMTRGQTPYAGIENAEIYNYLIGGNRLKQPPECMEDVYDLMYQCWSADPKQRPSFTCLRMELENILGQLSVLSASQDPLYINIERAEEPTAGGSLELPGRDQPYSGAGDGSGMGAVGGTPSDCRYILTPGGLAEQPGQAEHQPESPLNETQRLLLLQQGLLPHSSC
Put plainly: TR-FRET kinase activity assay, TYRO3. The format is biochemical. The following applies: ATP at Km, 60 minutes. Here is the method: (§1) IC50 values for compound inhibition of AXL, FLT3, MERTK and TYRO3 activity were determined by using a TR-FRET activity assay. A polypeptide substrate with a fluorescent label is phosphorylated on a tyrosine by each enzyme, where the now phosphorylated product is bound by a Europium-labeled antibody specific to that phosphorylation site. The proximity between the antibody and the substrate gives a signal known as TR-FRET. As the enzyme is inhibited by compound, less phosphorylated peptide product is made causing a decrease in overall signal.
(§2) Activity assays were performed in a 384-well, small volume, black microplates in an active enzyme volume of 10 μL and final developed volume of 20 μL. Final assay conditions are 50 mM HEPES pH 7.5, 10 mM MgCl2, 1 mM EGTA, 0.01% Brij 35 and 1 mM DTT all at RT. Enzyme, substrate labeled peptide and compound are mixed, and then the reaction is initiated with the addition of ATP at Km concentration for each enzyme. The reaction is allowed to run 60 minutes and then quenched with a 12.5 mM EDTA (ethylenediamine tetraacetic acid) solution. The plate is then developed with the addition of Europium labeled antibody for a final volume of 20 μL and is then incubated for 30 minutes in darkness. Plates are read in a Pherastar plate reader. Data is analyzed in GraphPad PRISM.
(§3) The results of these assays are shown in Table 1, below, wherein “No.” designates compound number (FIG. 1); “A” represents a value of ≤100 nM; “B” a value of >100 nM and ≤1 μM; “C” a value of >1 μM and ≤10 μM; “D” a value of >10 μM; “ND” is not determined. The ratio of Mer to FLT3 is calculated as follows: FLT3 IC50/Mer IC50. “+” represents a ratio of >2.0 and <10; “++” represents a ratio of between 10 and 100; and “+++” represents a ratio of >100.
For orientation: In TR-FRET formats the signal depends on donor and acceptor labels being close together.

The next assay has as its target T2, AXL (Homo sapiens, UniProt P30530).
T2 sequence (P30530 26-894): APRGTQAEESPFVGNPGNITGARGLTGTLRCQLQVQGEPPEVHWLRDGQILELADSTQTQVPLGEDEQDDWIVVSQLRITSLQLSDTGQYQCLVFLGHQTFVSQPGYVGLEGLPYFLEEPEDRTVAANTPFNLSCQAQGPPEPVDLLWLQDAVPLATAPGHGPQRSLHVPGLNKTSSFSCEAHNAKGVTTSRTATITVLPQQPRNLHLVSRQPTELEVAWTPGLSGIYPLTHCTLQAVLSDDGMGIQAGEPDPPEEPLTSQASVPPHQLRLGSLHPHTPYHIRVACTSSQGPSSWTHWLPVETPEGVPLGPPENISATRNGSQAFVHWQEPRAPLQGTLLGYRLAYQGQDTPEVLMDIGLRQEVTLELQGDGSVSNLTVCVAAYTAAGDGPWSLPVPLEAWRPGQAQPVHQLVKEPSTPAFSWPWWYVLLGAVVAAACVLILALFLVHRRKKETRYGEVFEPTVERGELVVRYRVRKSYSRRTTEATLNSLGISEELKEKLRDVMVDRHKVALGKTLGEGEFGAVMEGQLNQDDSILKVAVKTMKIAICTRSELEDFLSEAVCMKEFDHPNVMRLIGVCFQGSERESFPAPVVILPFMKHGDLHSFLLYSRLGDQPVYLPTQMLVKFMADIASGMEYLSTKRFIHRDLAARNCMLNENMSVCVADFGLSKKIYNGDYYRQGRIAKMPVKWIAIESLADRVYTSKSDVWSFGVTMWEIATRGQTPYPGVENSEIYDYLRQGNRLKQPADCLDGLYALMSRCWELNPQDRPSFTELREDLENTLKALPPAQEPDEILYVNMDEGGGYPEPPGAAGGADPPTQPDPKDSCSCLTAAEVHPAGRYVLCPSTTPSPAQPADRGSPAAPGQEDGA
Put plainly: TR-FRET kinase activity assay, AXL. It is filed as biochemical. The note with it: ATP at Km, 60 minutes. As to the method:
as §1, §2, §3

Some results are limits rather than exact numbers.

The IC50 is the midpoint of a concentration-inhibition curve. Low readings indicate greater potency, high ones weaker potency. As for `CCCCCC(C)Nc1ncc2c(C3=CCC(C(=O)N4CCOCC4)CC3)cc(C3CCC(O)CC3)n2n1` (mixture of isomers) [Compound 110], the IC50 at TYRO3 and at AXL was ≤ 100 nM throughout.
Turning to `CCCCC[C@H](C)Nc1ncc2c(-c3ccc(CN4CCN(C)CC4)cc3)cc([C@H]3CC[C@H](O)CC3)n2n1` [Compound 104], the concentration for half-maximal inhibition (IC50) against TYRO3 and against AXL was ≤ 100 nM throughout.
As for `CCCCC[C@H](C)Nc1ncc2c(-c3ccc(CN4CCN(C)CC4)cc3)cc([C@H]3CC[C@@H](O)CC3)n2n1` [Compound 105], the IC50 was ≤ 100 nM against TYRO3 and 100 to 1000 nM on AXL.
As to `CCCCC[C@H](C)Nc1ncc2c(NC3CCN(C)CC3)cc([C@H]3CC[C@H](O)CC3)n2n1` [Compound 107], the IC50 on TYRO3 and on AXL was ≤ 100 nM each time.
As for `CCCCC[C@H](C)Nc1ncc2c([C@H]3CC[C@H](C(=O)N4CCOCC4)CC3)cc([C@H]3CC[C@H](O)CC3)n2n1` [Compound 108], the IC50 against TYRO3 and at AXL was 100 to 1000 nM in each case.
Take `CCCCC[C@H](C)Nc1ncc2c([C@H]3CC[C@@H](C(=O)N4CCOCC4)CC3)cc([C@H]3CC[C@H](O)CC3)n2n1` [Compound 109, ((cis)-4-(2-((S)-heptan-2-ylamino)-7-((trans)-4-hydroxycyclohexyl)pyrrolo[2,1-f][1,2,4]triazin-5-yl)cyclohexyl)(morpholino)methanone]: the IC50 on TYRO3 and against AXL was ≤ 100 nM in each case.
For `COCC(C)Nc1ncc2c(-c3ccc4nccn4c3)cc(C3CCC(O)CC3)n2n1` (stereo not drawn) [Compound 193], the half-maximal inhibitory concentration (IC50) at TYRO3 and on AXL was ≤ 100 nM throughout.
Consider `COC[C@H](C)Nc1ncc2c(-c3cncc(S(C)(=O)=O)c3)cc([C@H]3CC[C@H](O)CC3)n2n1` [Compound 194], for which the IC50 against TYRO3 is ≤ 100 nM; against AXL it was 100 to 1000 nM.
With `COC[C@H](C)Nc1ncc2c(-c3cncc(F)c3)cc([C@H]3CC[C@H](O)CC3)n2n1` [Compound 195], the IC50 is ≤ 100 nM against TYRO3 and 100 to 1000 nM on AXL.
The corresponding values for `COC[C@H](C)Nc1ncc2c(-c3ccc(C(=O)N4CCCC4)cc3)cc([C@H]3CC[C@H](O)CC3)n2n1` [Compound 196] are ≤ 100 nM and ≤ 100 nM.
Take `COC[C@H](C)Nc1ncc2c(-c3ccc(C(=O)N4CCS(=O)(=O)CC4)cc3)cc([C@H]3CC[C@H](O)CC3)n2n1` [Compound 197]: the IC50 against TYRO3 and against AXL was ≤ 100 nM throughout.
As to `COCC(C)Nc1ncc2c(-c3ccc(-c4nnc(C)o4)cc3)cc(C3CCC(O)CC3)n2n1` (stereo not drawn) [Compound 198], the IC50 at TYRO3 is ≤ 100 nM; on AXL, 100 to 1000 nM.
The corresponding values for `COC[C@H](C)Nc1ncc2c(-c3cncc(C#N)c3)cc([C@H]3CC[C@H](O)CC3)n2n1` [Compound 201] are ≤ 100 nM and 100 to 1000 nM.
For `CC(Nc1ncc2c(-c3ccc(CN4CCOCC4)cc3)cc(C3CCC(O)CC3)n2n1)C(F)(F)F` (stereo not drawn) [Compound 202], the IC50 on TYRO3 was ≤ 100 nM; against AXL, 100 to 1000 nM.
The corresponding values for `C[C@@H](CC(F)(F)F)Nc1ncc2c(-c3ccc(CN4CCOCC4)cc3)cc([C@H]3CC[C@H](O)CC3)n2n1` [Compound 203] are ≤ 100 nM and ≤ 100 nM.
For the compound `C[C@H](Nc1ncc2c(-c3ccc(CN4CCOCC4)cc3)cc([C@H]3CC[C@H](O)CC3)n2n1)[C@H]1CCCO1` [Compound 204], the IC50 fell in the range of 100 to 1000 nM on TYRO3 and 1000 to 10000 nM on AXL.
In the case of `C[C@H](Nc1ncc2c(-c3ccc(CN4CCOCC4)cc3)cc([C@H]3CC[C@H](O)CC3)n2n1)[C@@H]1CCCO1` [Compound 205], the IC50 against TYRO3 is ≤ 100 nM; on AXL it was 1000 to 10000 nM.
As for `COC[C@H](C)Nc1ncc2c(-c3cnn(C(C)(C)C)c3)cc([C@H]3CC[C@H](O)CC3)n2n1` [Compound 206], the results for the IC50 against TYRO3 and against AXL were ≤ 100 nM and 100 to 1000 nM, respectively.
Consider `COC[C@H](C)Nc1ncc2c(-c3cnn(C(F)F)c3)cc([C@H]3CC[C@H](O)CC3)n2n1` [Compound 207], for which the IC50 against TYRO3 and at AXL was ≤ 100 nM each time.
In the case of `COC[C@H](C)Nc1ncc2c(-c3ccn(C)n3)cc([C@H]3CC[C@H](O)CC3)n2n1` [Compound 208], the IC50 is ≤ 100 nM on TYRO3 and 100 to 1000 nM on AXL.
As for `COCCn1cc(-c2cc([C@H]3CC[C@H](O)CC3)n3nc(N[C@@H](C)COC)ncc23)cn1` [Compound 209], the results for the IC50 at TYRO3 and at AXL were ≤ 100 nM and 100 to 1000 nM, respectively.
As to `COC[C@H](C)Nc1ncc2c(-c3cccc4c3CNC4=O)cc([C@H]3CC[C@H](O)CC3)n2n1` [Compound 210], the IC50 against TYRO3 is ≤ 100 nM; against AXL, 100 to 1000 nM.
For `COCC[C@@H](C)Nc1ncc2c(-c3ccc(CN4CCOCC4)cc3)cc([C@H]3CC[C@H](O)CC3)n2n1` [Compound 212], the half-maximal inhibitory concentration (IC50) on TYRO3 and against AXL was 100 to 1000 nM in each case.
On to `Cc1cc(-c2cc([C@H]3CC[C@H](O)CC3)n3nc(N[C@@H](C)CC(F)(F)F)ncc23)ccn1` [Compound 213], for which the IC50 against TYRO3 and against AXL was ≤ 100 nM each time.
Regarding `CC(C)OC[C@H](C)Nc1ncc2c(-c3ccc(CN4CCOCC4)cc3)cc([C@H]3CC[C@H](O)CC3)n2n1` [Compound 214], the IC50 is ≤ 100 nM against TYRO3 and 100 to 1000 nM at AXL.
Take `Cc1cc(-c2cc([C@H]3CC[C@H](O)CC3)n3nc(N[C@@H](C)COC(C)C)ncc23)ccn1` [Compound 215]: the IC50 was ≤ 100 nM on TYRO3 and 100 to 1000 nM on AXL.
Take `C[C@@H](CC1CC1)Nc1ncc2c(-c3ccc(CN4CCN(C)CC4)cc3)cc([C@H]3CC[C@H](O)CC3)n2n1` [Compound 216]: the IC50 against TYRO3 and against AXL was ≤ 100 nM in each case.
With `COC[C@H](C)Nc1ncc2c(-c3cccc(CN4CCOCC4)c3)cc([C@H]3CC[C@H](O)CC3)n2n1` [Compound 217], the IC50 is ≤ 100 nM on TYRO3 and 100 to 1000 nM against AXL.
The corresponding values for `COC[C@H](C)Nc1ncc2c(-c3cccc(CN4CCN(C)CC4)c3)cc([C@H]3CC[C@H](O)CC3)n2n1` [Compound 218] are ≤ 100 nM and 100 to 1000 nM.
The corresponding values for `COC[C@H](C)Nc1ncc2c(-c3cncc(CN4CCOCC4)c3)cc([C@H]3CC[C@H](O)CC3)n2n1` [Compound 219] are ≤ 100 nM and 100 to 1000 nM.
